The subject of this test is Wheat plants (Triticum aestivum cv. Monopol). Nature of the test: Growth-promoting effect on wheat plants after foliar treatment (Example 3). The test is classed as in vivo. The conditions noted are these: after 18 days; for activity at 7.5 g/ha / activity at 15 g/ha: Triticum aestivum, 432 h. Here is the method:
Wheat plants (Triticum aestivum cv. Monopol) were grown in soil with ten plants per pot (13 cm diameter) under greenhouse conditions. Plants at the 2nd leaf stage were sprayed with aqueous solutions of formulated compounds: • Compound 2: 5-Methyl-2-trifluoromethyl-furan-3-carboxylic acid (1-methylcarbamoyl-2-phenyl-ethyl)-amide • Compound 3: 1-Methyl-3-trifluoromethyl-1H-pyrazole-4-carboxylic acid (1-methylcarbamoyl-2-phenyl-ethyl)-amide • Compound 4: Methyl-carbamic acid-2-methylcarbamoyl-2-[(1-methyl-3-trifluoromethyl-1H-pyrazole-4-carbonyl)-amino]-ethyl ester • Compound 5: Methyl-carbamic acid-2-methylcarbamoyl-2-[(1-methyl-3-trifluoromethyl-1H-pyrazole-4-carbonyl)-amino]-1-(tetrahydro-pyran-4-yl)-ethyl ester • Compound 6: Methyl-carbamic acid 1,1-dimethyl-2-methylcarbamoyl-2-[(1-methyl-3-trifluoromethyl-1H-pyrazole-4-carbonyl)-amino]-ethyl ester • Compound 7: 1-Methyl-3-trifluoromethyl-1H-pyrazole-4-carboxylic acid (2-hydroxy-3-methoxy-2-methoxymethyl-1-methylcarbamoyl-propyl)-amide • Compound 8: Methyl-carbamic acid 1,1-bis-methoxymethyl-2-methylcarbamoyl-2-[(1-methyl-3-trifluoromethyl-1H-pyrazole-4-carbonyl)-amino]-ethyl ester • Compound 9: Methyl-carbamic acid (E)-1-methyl-1-{methylcarbamoyl-[(1-methyl-3-trifluoromethyl-1H-pyrazole-4-carbonyl)-amino]-methyl}-but-2-enyl ester The compounds were applied at two different dose rates (15 and 7.5 g ai/ha) and the spray volume was 750 I/ha. Six replicate pots with ten plants each were used per treatment. After 18 days plants were harvested and growth parameters were determined. The recorded parameters were fresh weight (FW) and dry weight (DW). Mean values of results, standard deviation (SD) and percentage to control were calculated.

[1] abbreviates: 7.5 g/ha foliar spray, read-out: Shoot DW % of control.
Where [2] appears, read: 7.5 g/ha foliar spray, read-out: Shoot FW % of control.
The mark [3] stands for this setting: 15 g/ha foliar spray, read-out: Shoot DW % of control.
Setting [4] is: 15 g/ha foliar spray, read-out: Shoot FW % of control.

Each structure is given as a SMILES string. Read-outs that look alike come from different tables or passages of the source.

For the compound `CNC(=O)OC(COC)(COC)C(NC(=O)c1cn(C)nc1C(F)(F)F)C(=O)NC` (stereo not shown) [Compound 8, Methyl-carbamic acid 1,1-bis-methoxymethyl-2-methylcarbamoyl-2-[(1-methyl-3-trifluoromethyl-1H-pyrazole-4-carbonyl)-amino]-ethyl ester], the “Shoot DW” value reads like this: (7.5 g/ha foliar spray) 3.9 g; (15 g/ha foliar spray) 3.7 g. The “Shoot FW” value is, setting by setting: (7.5 g/ha foliar spray) 39.6 g; (15 g/ha foliar spray) 39.4 g. Besides, the activity at 7.5 g/ha runs as follows: under setting [1], 138%; under setting [2], 129%. For the same compound, the activity at 15 g/ha under setting [3] is 131% and the activity at 15 g/ha under setting [4] amounted to 121%.

For `CNC(=O)OC(C1CCOCC1)C(NC(=O)c1cn(C)nc1C(F)(F)F)C(=O)NC` (stereo not shown) [Compound 5, Methyl-carbamic acid 2-methylcarbamoyl-2-[(1-methyl-3-trifluoromethyl-1H-pyrazole-4-carbonyl)-amino]-1-(tetrahydro-pyran-4-yl)-ethyl ester], the “Shoot DW” value by setting is: (7.5 g/ha foliar spray) 3.8 g; (15 g/ha foliar spray) 3.7 g. Further, the “Shoot FW” value stood at 41.2 g (7.5 g/ha foliar spray) and 39.6 g (15 g/ha foliar spray). In addition, the activity at 7.5 g/ha was determined as 135% under setting [1] and 135% under setting [2]. In addition, the activity at 15 g/ha is, setting by setting: under setting [3], 133%; under setting [4], 129%.

For the compound `CNC(=O)OCC(NC(=O)c1cn(C)nc1C(F)(F)F)C(=O)NC` (stereo not shown) [Compound 4, Methyl-carbamic acid-2-methylcarbamoyl-2-[(1-methyl-3-trifluoromethyl-1H-pyrazole-4-carbonyl)-amino]-ethyl ester], the “Shoot DW” value was found to be 3.7 g (7.5 g/ha foliar spray) and 3.8 g (15 g/ha foliar spray). The “Shoot FW” value (7.5 g/ha foliar spray) is recorded as 37.7 g and the “Shoot FW” value (15 g/ha foliar spray) came to 40.1 g. For the same compound, the activity at 7.5 g/ha was 131% under setting [1] and 123% under setting [2]. The activity at 15 g/ha was 137% under setting [3] and 131% under setting [4].

For `CNC(=O)OC(C)(C)C(NC(=O)c1cn(C)nc1C(F)(F)F)C(=O)NC` (stereo not shown) [Compound 6, Methyl-carbamic acid 1,1-dimethyl-2-methylcarbamoyl-2-[(1-methyl-3-trifluoromethyl-1H-pyrazole-4-carbonyl)-amino]-ethyl ester], the “Shoot DW” value came to 3.7 g (7.5 g/ha foliar spray) and 3.6 g (15 g/ha foliar spray). Further, the “Shoot FW” value by setting is: (7.5 g/ha foliar spray) 39.2 g; (15 g/ha foliar spray) 38.2 g. For the same compound, the activity at 7.5 g/ha runs as follows: under setting [1], 132%; under setting [2], 128%. The activity at 15 g/ha came to 130% under setting [3] and 125% under setting [4].

In the case of `CNC(=O)C(Cc1ccccc1)NC(=O)c1cn(C)nc1C(F)(F)F` (stereo not shown) [Compound 3, 1-Methyl-3-trifluoromethyl-1H-pyrazole-4-carboxylic acid (1-methylcarbamoyl-2-phenyl-ethyl)-amide], the “Shoot DW” value is recorded as 3.8 g (7.5 g/ha foliar spray) and 3.8 g (15 g/ha foliar spray). In addition, the “Shoot FW” value by setting is: (7.5 g/ha foliar spray) 39.4 g; (15 g/ha foliar spray) 39.1 g. Moreover, the activity at 7.5 g/ha by setting is: under setting [1], 135%; under setting [2], 129%. In addition, the activity at 15 g/ha under setting [3] was 135% and the activity at 15 g/ha under setting [4] amounted to 128%.

Turning to `CNC(=O)C(Cc1ccccc1)NC(=O)c1cc(C)oc1C(F)(F)F` (stereo not shown) [Compound 2, 5-Methyl-2-trifluoromethyl-furan-3-carboxylic acid (1-methylcarbamoyl-2-phenyl-ethyl)-amide], the “Shoot DW” value is, setting by setting: (7.5 g/ha foliar spray) 3.8 g; (15 g/ha foliar spray) 3.7 g. Further, the “Shoot FW” value by setting is: (7.5 g/ha foliar spray) 40.9 g; (15 g/ha foliar spray) 38.7 g. Moreover, the activity at 7.5 g/ha runs as follows: under setting [1], 135%; under setting [2], 134%. Besides, the activity at 15 g/ha is 131% under setting [3] and 126% under setting [4].

As for `C/C=C/C(C)(OC(=O)NC)C(NC(=O)c1cn(C)nc1C(F)(F)F)C(=O)NC` (stereo not shown) [Compound 9, Methyl-carbamic acid (E)-1-methyl-1-{methylcarbamoyl-[(1-methyl-3-trifluoromethyl-1H-pyrazole-4-carbonyl)-amino]-methyl}-but-2-enyl ester], the “Shoot DW” value is on record as 3.6 g (7.5 g/ha foliar spray) and 3.8 g (15 g/ha foliar spray). In addition, the “Shoot FW” value runs as follows: (7.5 g/ha foliar spray) 38.8 g; (15 g/ha foliar spray) 39.4 g. The activity at 7.5 g/ha reads like this: under setting [1], 129%; under setting [2], 127%. Moreover, the activity at 15 g/ha under setting [3] is 135% and the activity at 15 g/ha under setting [4] came out at 129%.

On to `CNC(=O)C(NC(=O)c1cn(C)nc1C(F)(F)F)C(O)(COC)COC` (stereo not shown) [Compound 7, 1-Methyl-3-trifluoromethyl-1H-pyrazole-4-carboxylic acid (2-hydroxy-3-methoxy-2-methoxymethyl-1-methylcarbamoyl-propyl)-amide], for which the “Shoot DW” value amounted to 3.7 g (7.5 g/ha foliar spray) and 3.7 g (15 g/ha foliar spray). Moreover, the “Shoot FW” value (7.5 g/ha foliar spray) was found to be 38.7 g and the “Shoot FW” value (15 g/ha foliar spray) was 40.2 g. Also, the activity at 7.5 g/ha under setting [1] turned out to be 131% and the activity at 7.5 g/ha under setting [2] was found to be 126%. The activity at 15 g/ha is, setting by setting: under setting [3], 133%; under setting [4], 131%.

The values above are taken from patent US20110209253A1, “Method for Improving Plant Health” (BASF SE, priority 2008, published 2011).
